The values below are quoted from earlier work in PubChem BioAssay AID1259409 (Chemical Carcinogenesis Research Information System (CCRIS), 2018).

This data set concerns rodent chemically induced tumor inhibition, incidence and multiplicity. Description: CCRIS tumor inhibitor studies. Particulars: Route [Inhibitor]: ORAL, Species: HAMSTER, Promoter: NONE USED.

Consider `CC1=C(/C=C/C(C)=C/C=C/C(C)=C/C(=O)NCCO)C(C)(C)CCC1`, for which the “tumour outcome (control, treated, inhibition, significance)” value is, setting by setting: (Carcinogen: N-NITROBIS(2-OXOPROPYL)AMINE, 60559-38-4, Dose [Inhibitor]: 0.5 OR 1.0 MMOL/KG DIET DAILY STARTING 1 WK AFTER CARCINOGEN TREATMENT AND CONTINUING THROUGH THE END OF THE STUDY (STUD, Strain/Sex: SYRIAN/MALE, Target Tissue: Type of Lesion: PANCREAS: DUCTULAR CARCINOMA, Dose [Carcinogen]: 10 MG/KG BW ONCE) 4/22 (18%), 7/37 (19%), -6%, not significant; (Carcinogen: N-NITROBIS(2-OXOPROPYL)AMINE, 60559-38-4, Dose [Inhibitor]: 0.5 OR 1.0 MMOL/KG DIET DAILY STARTING 1 WK AFTER CARCINOGEN TREATMENT AND CONTINUING THROUGH THE END OF THE STUDY (STUD, Strain/Sex: SYRIAN/MALE, Target Tissue: Type of Lesion: PANCREAS: DUCTULAR CARCINOMA, Dose [Carcinogen]: 40 MG/KG BW ONCE) 5/24 (21%), 20/42 (48%), -129%, not significant; (Carcinogen: N-NITROBIS(2-OXOPROPYL)AMINE, 60559-38-4, Dose [Inhibitor]: 0.5 OR 1.0 MMOL/KG IN DIET STARTING 1 WK AFTER CARCINOGEN TREATMENT AND CONTINUING THROUGH THE END OF THE STUDY (STUDY D, Strain/Sex: SYRIAN/FEMALE, Target Tissue: Type of Lesion: LIVER: BENIGN TUMOR, Dose [Carcinogen]: 40 MG/KG BW ONCE) 4/20 (20%), 17/35 (49%), -145%, not significant; (Carcinogen: N-NITROBIS(2-OXOPROPYL)AMINE, 60559-38-4, Dose [Inhibitor]: 0.5 OR 1.0 MMOL/KG IN DIET STARTING 1 WK AFTER CARCINOGEN TREATMENT AND CONTINUING THROUGH THE END OF THE STUDY (STUDY D, Strain/Sex: SYRIAN/FEMALE, Target Tissue: Type of Lesion: PANCREAS: DUCTULAR ADENOMA, Dose [Carcinogen]: 10 MG/KG BW ONCE) 5/23 (23%), 10/37 (27%), -17%, not significant; (Carcinogen: N-NITROBIS(2-OXOPROPYL)AMINE, 60559-38-4, Dose [Inhibitor]: 0.5 OR 1.0 MMOL/KG IN DIET STARTING 1 WK AFTER CARCINOGEN TREATMENT AND CONTINUING THROUGH THE END OF THE STUDY (STUDY D, Strain/Sex: SYRIAN/FEMALE, Target Tissue: Type of Lesion: PANCREAS: DUCTULAR ADENOMA, Dose [Carcinogen]: 40 MG/KG BW ONCE) 12/20 (60%), 27/33 (82%), -37%, not significant; (Carcinogen: N-NITROBIS(2-OXOPROPYL)AMINE, 60559-38-4, Dose [Inhibitor]: 0.5 OR 1.0 MMOL/KG IN DIET STARTING 1 WK AFTER CARCINOGEN TREATMENT AND CONTINUING THROUGH THE END OF THE STUDY (STUDY D, Strain/Sex: SYRIAN/FEMALE, Target Tissue: Type of Lesion: PANCREAS: DUCTULAR CARCINOMA, Dose [Carcinogen]: 40 MG/KG BW ONCE) 6/20 (30%), 8/33 (24%), 20%, not significant. Further, the “tumour outcome (control, treated, inhibition, significance)” value reads like this: (Carcinogen: N-NITROBIS(2-OXOPROPYL)AMINE, 60559-38-4, Dose [Inhibitor]: 0.5 OR 1.0 MMOL/KG IN DIET STARTING 1 WK AFTER CARCINOGEN TREATMENT AND CONTINUING THROUGH THE END OF THE STUDY (STUDY D, Strain/Sex: SYRIAN/MALE, Target Tissue: Type of Lesion: LIVER: BENIGN TUMOR, Dose [Carcinogen]: 40 MG/KG BW ONCE) 5/24 (21%), 26/42 (62%), -195%, p<0.05; (Carcinogen: N-NITROBIS(2-OXOPROPYL)AMINE, 60559-38-4, Dose [Inhibitor]: 0.5 OR 1.0 MMOL/KG IN DIET STARTING 1 WK AFTER CARCINOGEN TREATMENT AND CONTINUING THROUGH THE END OF THE STUDY (STUDY D, Strain/Sex: SYRIAN/MALE, Target Tissue: Type of Lesion: PANCREAS: DUCTULAR ADENOMA, Dose [Carcinogen]: 10 MG/KG BW ONCE) 3/22 (14%), 16/37 (43%), -207%, not significant; (Carcinogen: N-NITROBIS(2-OXOPROPYL)AMINE, 60559-38-4, Dose [Inhibitor]: 0.5 OR 1.0 MMOL/KG IN DIET STARTING 1 WK AFTER CARCINOGEN TREATMENT AND CONTINUING THROUGH THE END OF THE STUDY (STUDY D, Strain/Sex: SYRIAN/MALE, Target Tissue: Type of Lesion: PANCREAS: DUCTULAR ADENOMA, Dose [Carcinogen]: 40 MG/KG BW ONCE) 8/24 (33%), 34/42 (81%), -145%, not significant; (Carcinogen: N-NITROBIS(2-OXOPROPYL)AMINE, 60559-38-4, Dose [Inhibitor]: 0.5 OR 1.0 MMOL/KG IN DIET STARTING 1 WK AFTER CARCINOGEN TREATMENT AND CONTINUING THROUGH THE END OF THE STUDY (STUDY D, Strain/Sex: SYRIAN/MALE, Target Tissue: Type of Lesion: PANCREAS: DUCTULAR CARCINOMA, Dose [Carcinogen]: 10 MG/KG BW SINGLE INJECTION) 4/22 (18%), 7/37 (19%), -6%, not significant; (Carcinogen: N-NITROBIS(2-OXOPROPYL)AMINE, 60559-38-4, Dose [Inhibitor]: 0.5 OR 1.0 MMOL/KG IN DIET STARTING 1 WK AFTER CARCINOGEN TREATMENT AND CONTINUING THROUGH THE END OF THE STUDY (STUDY D, Strain/Sex: SYRIAN/MALE, Target Tissue: Type of Lesion: PANCREAS: DUCTULAR CARCINOMA, Dose [Carcinogen]: 40 MG/KG BW ONCE) 5/24 (21%), 20/42 (48%), -129%, not significant; (Carcinogen: N-NITROSOBIS(2-OXYPROPYL)AMINE, 60599-38-4, Dose [Inhibitor]: 0.05, 0.1 OR 0.2 MILLIMOLAR/KG DIET FOR 32 WK STARTING 1 WK AFTER CARCINOGEN DOSE (STUDY DURATION: 33 WK), Strain/Sex: SYRIAN/FEMALE, Target Tissue: Type of Lesion: LIVER: ADENOMA, Dose [Carcinogen]: 40 MG/KG ONCE) 6/10 (60%), 6/29 (21%), 65%, p<0.025.
